Test results from US20170065564A1, “BIS-CYCLIC GUANIDINE COMPOUND COMPOSITIONS, METHODS OF USE AND TREATMENT THEREOF” (University of South Florida, priority 2014, published 2017).
Like-named read-outs stand apart in the source and are kept apart here.

Assays:
[1] = tested on: Enterobacter cloacae biofilm; assay: Minimum biofilm eradication concentration (MBEC) assay; format: cell-based; conditions: 24 h biofilm, purified compound
Method: (§1) The minimum biofilm eradication concentration (MBEC) was determined in 96-well microtiter plates as follows. Broth cultures of ESKAPE strains were grown using the conditions described above. Biofilms for each of the ESKAPE pathogens were generated from these as we have previously described for S. aureus, however human serum was not used for non-staphylococcal organisms.^44 46 For all organisms, biofilms were developed by standardizing an overnight culture into fresh media to an OD600 of 0.5 and adding 150 μl into each well of a 96-well microtiter plate. […] These cultures were incubated at 37° C. overnight alongside no drug controls. After 24 hours, the media was removed from wells and the biofilm resuspended in phosphate buffered saline (PBS). Cultures were mixed by vigorous pipetting, before being serially diluted in PBS, and plated in duplicate on relevant agar. Plates were incubated at 37° C. for 24 hours, and CFUs determined by enumeration. Each analysis was performed using three technical replicates, and antibiofilm activity was determined by comparing treated to untreated samples.

[2] = tested on: Pseudomonas aeruginosa biofilm; assay: as above; format: cell-based; conditions: 24 h biofilm, purified compound
Method: as §1

[3] = tested on: Enterococcus faecium biofilm; assay: as above; format: cell-based; conditions: 24 h biofilm, purified compound
Method: as §1

[4] = tested on: Staphylococcus aureus biofilm; assay: as above; format: cell-based; conditions: 24 h biofilm, purified compound
Method: as §1

[5] = tested on: Staphylococcus aureus; assay: MIC micro broth dilution assay; format: cell-based; conditions: for stacked score activity, 100/MIC, S: S. aureus; for MIC: Staphylococcus aureus
Method in brief: (§2)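 Strains were multidrug-resistant clinical isolates grown in LB (Gram-negative) or TSB (Gram-positive), diluted 1:1,000 before compound addition.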

[6] = tested on: A. baumannii; assay: Resistance serial passage assay; format: cell-based, Acinetobacter baumannii; conditions: 8 passages, concentration doubled each day
Method: ESKAPE pathogens were grown overnight in liquid media at 37° C. These cultures were then diluted 1:100 in fresh media, and seeded into a 96-well plate. Lead bis-cyclic guanidines or control agents were added to respective wells at half MIC concentrations. Plates were then incubated for 24 hours at 37° C., with bacteria removed from these cultures on the following day, to inoculate fresh media (1:100 dilution) containing compounds at a 2-fold higher concentrations. These were then grown overnight, and the procedure repeated for a total of eight days. […] Each experiment was performed in triplicate, yielding identical results.

[7] = tested on: Enterobacter cloacae; assay: MIC micro broth dilution assay; format: cell-based; conditions: for stacked score activity, 100/MIC, E: E. cloacae; for MIC: Enterobacter cloacae
Method in brief: as §2

[8] = tested on: Enterococcus faecium; assay: MIC micro broth dilution assay; format: cell-based; conditions: for stacked score activity, 100/MIC, E: E. faecium; for MIC: Enterococcus faecium
Method in brief: as §2

[9] = tested on: Pseudomonas aeruginosa; assay: Minimal bactericidal concentration (MBC) assay; format: cell-based; conditions: Pseudomonas aeruginosa; purified compound; read-out: MBC90
Method: (§3) Briefly, compound was washed by centrifugation and serial dilution, before plating on Tryptic Soy Agar (TSA). Plates were incubated for 24 hours at 37° C. and cell viability assessed by determining CFU/ml at each concentration, for every compound. Percent recovery was then determined compared to CFU/ml from no drug controls. All concentrations and controls were tested using three biological replicates, alongside two technical replicates for each data point.

[10] = tested on: Enterobacter cloacae; assay: Minimal bactericidal concentration (MBC) assay; format: cell-based; conditions: Enterobacter cloacae; purified compound; read-out: MBC90
Method: as §3

[11] = tested on: Acinetobacter baumannii; assay: Minimal bactericidal concentration (MBC) assay; format: cell-based; conditions: purified compound, read-out: MBC90
Method: as §3

[12] = tested on: Staphylococcus aureus; assay: Minimal bactericidal concentration (MBC) assay; format: cell-based; conditions: purified compound, read-out: MBC90
Method: as §3

[13] = tested on: Enterococcus faecium; assay: Minimal bactericidal concentration (MBC) assay; format: cell-based; conditions: purified compound, read-out: MBC90
Method: as §3

[14] = tested on: Klebsiella pneumoniae; assay: Minimal bactericidal concentration (MBC) assay; format: cell-based; conditions: purified compound, read-out: MBC90
Method: as §3

[15] = tested on: Klebsiella pneumoniae; assay: MIC micro broth dilution assay; format: cell-based; conditions: for stacked score activity, 100/MIC, K: K. pneumoniae; for MIC: Klebsiella pneumoniae
Method in brief: as §2

[16] = panel of E. cloacae clinical isolates
[17] = panel of K. pneumoniae clinical isolates

CCCC[C@H]1CN(CCCC[C@H]2CNC(=N)N2CCc2cccc(C(F)(F)F)c2)C(=N)N1CCCCC1CCCCC1 [Compound 2, (S)-4-butyl-3-(4-cyclohexylbutyl)-1-(4-((S)-2-imino-3-(3-(trifluoromethyl)phenethyl)imidazolidin-4-yl)butyl)imidazolidin-2-imine]
7 µM: MIC ([7]; E. cloacae isolate 1446)
50: stacked score activity, 100/MIC, E [8]
3 µM: MIC ([7]; E. cloacae isolate 1447) | MIC ([7]; E. cloacae isolate 1448) | MIC ([15]; K. pneumoniae isolate 1409) | MIC ([15]; K. pneumoniae isolate 1434)
5 µM: concentration inhibiting 90% of isolates [7, 16] | MIC ([15]; K. pneumoniae isolate 1440) | concentration inhibiting 90% of isolates [15, 17]
20: stacked score activity, 100/MIC, E [7] | stacked score activity, 100/MIC, K [15]
2.83 µM: MBC ([11]; Acinetobacter baumannii)
4.15 µM: MBC [10]
8 fold: increase in MIC after serial passage [6]
1.66 µM: MBC ([13]; Enterococcus faecium)
3.98 µM: MBC ([14]; Klebsiella pneumoniae)
2.03 µM: MBC ([12]; Staphylococcus aureus)
2.32 µM: MBC [9]
30.62 µM: MBEC50 [2]
13.44 µM: MBEC50 [1]
2.18 µM: MBEC50 [4]
29.20 µM: MBEC50 [3]
1.52 µM: MIC ([5]; purified compound, Table 1) | MIC ([7]; purified compound, Table 1) | MIC ([8]; purified compound, Table 1) | MIC ([15]; purified compound, Table 1)
33: stacked score activity, 100/MIC, S [5]
2 µM: MIC ([5]; S. aureus isolate 542) | MIC ([5]; S. aureus isolate 626) | MIC ([5]; S. aureus isolate 635) | MIC ([5]; S. aureus isolate 648) | MIC ([5]; S. aureus isolate 690) | MIC ([5]; S. aureus isolate 693) | MIC ([5]; S. aureus isolate 715) | MIC ([5]; S. aureus isolate 728) | MIC ([5]; S. aureus isolate 834) | MIC ([5]; S. aureus isolate 1043) | MIC ([5]; S. aureus isolate 1049) | MIC ([7]; E. cloacae isolate 1404) | MIC ([7]; E. cloacae isolate 1405) | MIC ([7]; E. cloacae isolate 1430) | MIC ([7]; E. cloacae isolate 1431) | MIC ([7]; E. cloacae isolate 1445) | MIC ([7]; E. cloacae isolate 1454) | MIC ([7]; E. cloacae isolate 1455) | concentration inhibiting 70% of strains [7, 16] | MIC ([8]; E. faecium isolate 1406) | MIC ([8]; E. faecium isolate 1407) | MIC ([8]; E. faecium isolate 1432) | MIC ([8]; E. faecium isolate 1438) | MIC ([8]; E. faecium isolate 1439) | MIC ([8]; E. faecium isolate 1443) | MIC ([8]; E. faecium isolate 1444) | MIC ([8]; E. faecium isolate 1449) | MIC ([8]; E. faecium isolate 1450) | MIC ([8]; E. faecium isolate 1451) | MIC ([15]; K. pneumoniae isolate 1408) | MIC ([15]; K. pneumoniae isolate 1410) | MIC ([15]; K. pneumoniae isolate 1411) | MIC ([15]; K. pneumoniae isolate 1412) | MIC ([15]; K. pneumoniae isolate 1413) | MIC ([15]; K. pneumoniae isolate 1433) | MIC ([15]; K. pneumoniae isolate 1441) | concentration inhibiting 70% of strains [15, 17]

CCCCCCCN1C(=N)N(CCCC[C@H]2CNC(=N)N2CCc2cccc(C(F)(F)F)c2)C[C@@H]1CC1CCCCC1 [Compound 7]
1.52 µM: MIC ([5]; purified compound, Table 1) | MIC ([7]; purified compound, Table 1) | MIC ([8]; purified compound, Table 1) | MIC ([15]; purified compound, Table 1)
45.56 µM: MBEC50 [2]
2.16 to 3.28 µM: MBC ([11]; Acinetobacter baumannii) | MBC ([12]; Staphylococcus aureus) | MBC ([13]; Enterococcus faecium) | MBC ([14]; Klebsiella pneumoniae)
3.23 µM: MBC [11]
2 µM: MIC ([5]; S. aureus isolate 542) | MIC ([5]; S. aureus isolate 626) | MIC ([5]; S. aureus isolate 635) | MIC ([5]; S. aureus isolate 648) | MIC ([5]; S. aureus isolate 690) | MIC ([5]; S. aureus isolate 693) | MIC ([5]; S. aureus isolate 715) | MIC ([5]; S. aureus isolate 728) | MIC ([5]; S. aureus isolate 834) | MIC ([5]; S. aureus isolate 1043) | MIC ([5]; S. aureus isolate 1049) | MIC ([7]; E. cloacae isolate 1404) | MIC ([7]; E. cloacae isolate 1405) | MIC ([7]; E. cloacae isolate 1430) | MIC ([7]; E. cloacae isolate 1431) | MIC ([7]; E. cloacae isolate 1445) | MIC ([7]; E. cloacae isolate 1447) | MIC ([7]; E. cloacae isolate 1448) | MIC ([7]; E. cloacae isolate 1454) | MIC ([7]; E. cloacae isolate 1455) | concentration inhibiting 90% of isolates [7, 16] | MIC ([8]; E. faecium isolate 1406) | MIC ([8]; E. faecium isolate 1407) | MIC ([8]; E. faecium isolate 1432) | MIC ([8]; E. faecium isolate 1438) | MIC ([8]; E. faecium isolate 1439) | MIC ([8]; E. faecium isolate 1443) | MIC ([8]; E. faecium isolate 1444) | MIC ([8]; E. faecium isolate 1449) | MIC ([8]; E. faecium isolate 1450) | MIC ([8]; E. faecium isolate 1451) | MIC ([15]; K. pneumoniae isolate 1408) | MIC ([15]; K. pneumoniae isolate 1410) | MIC ([15]; K. pneumoniae isolate 1411) | MIC ([15]; K. pneumoniae isolate 1412) | MIC ([15]; K. pneumoniae isolate 1413) | MIC ([15]; K. pneumoniae isolate 1433) | MIC ([15]; K. pneumoniae isolate 1441)
26.30 µM: MBEC50 [3]
3.28 µM: MBC [12]
5 µM: MIC ([7]; E. cloacae isolate 1446) | MIC ([15]; K. pneumoniae isolate 1434) | concentration inhibiting 90% of isolates [15, 17]
3.27 µM: MBC [13]
33: stacked score activity, 100/MIC, S [5] | stacked score activity, 100/MIC, E [8]
4.35 µM: MBEC50 [4]
20: stacked score activity, 100/MIC, E [7] | stacked score activity, 100/MIC, K [15]
6.36 µM: MBC [10]
2.16 µM: MBC [14]
8 fold: increase in MIC after serial passage [6]
13.7 µM: MBC [9]
3 µM: MIC ([15]; K. pneumoniae isolate 1409) | MIC ([15]; K. pneumoniae isolate 1440)
14.54 µM: MBEC50 [1]
